Laboratory results taken from BindingDB's records for doi:10.7270/Q2CN728N (Nmmlsc, 2008).
Structures can show the parent of a compound that is named as a salt.

What follows are molecules tested against T1, Bcl-2-related protein A1 (Homo sapiens, UniProt Q16548) (assay: Bfl-1/Bim complex disruptors – biochemical, multiplexed, bead-based flow cytometry, dose response (AID 1320)). Conditions: inactive by the depositor's call; pH 7.4; 4 °C.
T1 sequence (Q16548 whole entry): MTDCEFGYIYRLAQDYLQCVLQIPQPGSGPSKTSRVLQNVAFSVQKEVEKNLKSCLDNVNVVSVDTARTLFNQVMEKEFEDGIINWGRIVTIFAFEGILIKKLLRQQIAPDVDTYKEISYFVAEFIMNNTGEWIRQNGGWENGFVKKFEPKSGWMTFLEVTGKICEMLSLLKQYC

Row | SMILES | EC50 [µM]
1 | CN1CCN(C2=C(Cl)C(=O)C(c3cnc(N4CCCCC4)s3)=C(Cl)C2=O)CC1 | 0.01
2 | Cc1ccc(-c2ccc(/C=C/C(=O)c3ccccc3)o2)cc1 | 7.03
3 | CCN(CC)c1ccc(-c2nn3c(-c4ccccc4OC)nnc3s2)cc1 | 40.8
4 | CCN(CC)c1ccc(-c2nn3c(-c4n[nH]c5c4CCC5)nnc3s2)cc1 | 28.6
5 | CN(C)c1ncc(C2=C(Cl)C(=O)C(N3CCCC3)=C(Cl)C2=O)s1 | 0.04
6 | O=C(/C=C/c1ccc(-c2ccccc2[N+](=O)[O-])o1)c1ccccc1 | 2.61
7 | c1ccc(C2=Nc3cccc4cccc(c34)N2)cc1 | 26.2
8 | CCN(CC)c1ccc(NC(=O)c2ccccc2Br)cc1S(=O)(=O)Nc1ccccc1OC | 5.4
9 | Cc1ccc(/C=C2/NC(=O)N(Cc3ccc(Br)cc3)C2=O)o1 | 5.22
10 | CCOC(=O)c1c(NC(C)=O)sc2c(O)c(Br)cc(Br)c12 | 17.8
11 | COc1ccc(N2C(=O)C(=Cc3cccs3)NC2=S)cc1 | 3.86
12 | O=C1CSc2ccc(C(=O)Nc3cccc(S(=O)(=O)Nc4ccc(Br)cc4)c3)cc2N1 | 5.81
13 | CCOc1ccc(-n2cc(-c3ccc(OC)c(OC)c3)[nH]c2=S)cc1 | 0.68
14 | CCOC(=O)c1ccc(/N=c2/ssnc2Cl)cc1 | 37.5
15 | Cc1ccc(-c2nc3c(c(=O)[nH]c(=O)n3Cc3ccccc3)n2Cc2ccccc2)o1 | 8.43
16 | CC1N(C)c2cccc3cccc(c23)N1C [1,2,3-trimethyl-2,3-dihydro-1H-perimidine] | 2.46
17 | Cc1c(/N=C2\C=CC(=O)c3ccccc32)c(=O)n(-c2ccccc2)n1C [1,5-dimethyl-4-[(4-oxo-1-naphthalenylidene)amino]-2-phenyl-3-pyrazolone] | 53.5
18 | Cc1ccc(O)c(NC2=C(Cl)C(=O)N(Cc3ccccc3)C2=O)c1 [1-benzyl-3-chloro-4-(2-hydroxy-5-methylanilino)pyrrole-2,5-dione] | 13.8
19 | Cc1ccc(C(=O)/C=C/c2ccc(-c3ccc(C)cc3)o2)cc1 [1-p-Tolyl-3-(5-p-tolyl-furan-2-yl)-propenone] | 3.23
20 | COc1ccc(/C=C(/C(=O)c2cccs2)N2C=CC=CC2=C(C#N)C#N)cc1 [2-[1-[(Z)-1-(4-methoxyphenyl)-3-oxidanylidene-3-thiophen-2-yl-prop-1-en-2-yl]pyridin-2-ylidene]propanedinitrile] | 2.23
21 | Cc1ccc(-c2cc(-c3ccc(Cl)cc3)c(C#N)c(N)n2)o1 [2-azanyl-4-(4-chlorophenyl)-6-(5-methylfuran-2-yl)pyridine-3-carbonitrile] | 2.65
22 | Cc1ccc(/C=C/C(=O)c2ccccc(=O)c2O)c(C)c1 [3-[3-(2,4-dimethylphenyl)acryloyl]-2-hydroxy-2,4,6-cycloheptatrien-1-one] | 51.1
23 | N#Cc1cccc(/N=c2/ssnc2Cl)c1 [3-[(4-chloro-5-dithiazolylidene)amino]benzonitrile] | 14.5
24 | COc1ccc(N2C(=O)C(Cl)=C(Oc3cccc(OC)c3)C2=O)cc1 [3-chloro-4-(3-methoxyphenoxy)-1-(4-methoxyphenyl)-1H-pyrrole-2,5-dione] | 0.68
25 | CCOc1cc(S(=O)(=O)Nc2ccccn2)ccc1F [3-ethoxy-4-fluoro-N-(2-pyridinyl)benzenesulfonamide] | 44.5

Same assay, conditions: pH 7.4; 4 °C

Row | SMILES | EC50 [µM]
26 | CN1CCc2cccc3c2[C@@H]1Cc1ccc(O)c(O)c1-3 | 15.1
27 | O=C(Nc1ccc2nc(-c3ccco3)c(-c3ccco3)nc2c1)N1CCCCCC1 | 0.92
28 | CCN1C(=O)/C(=C/C=C2\C=CN(CC)c3ccccc32)SC1=S | 3.6
29 | CCC(/C=C1\Sc2ccc(OC)cc2N1CCO)=C\c1sc2ccc(OC)cc2[n+]1CCO | 20.3
30 | N#Cc1cc(-c2ccccc2)nn1-c1ccccc1 | 2.02
31 | Cc1ccc(-c2cc(-c3ccc(F)cc3)c(C#N)c(N)n2)o1 | 5.2
32 | Cc1c(N=C2C(=O)N(c3ccccc3Cl)C(=O)C2Cl)c(=O)n(-c2ccccc2)n1C (stereo not drawn) | 6.04
33 | CCN=c1scc(C)n1N=Cc1ccc(O)c(O)c1O | 19.6
34 | Cc1cccc(N2C(=S)C(C#N)C(=O)NC2c2cccs2)c1 (stereo not drawn) | 18.3
35 | O=C1C(Cl)=C(N2CCN(c3ccccc3[N+](=O)[O-])CC2)C(=O)c2ccccc21 | 0.36
36 | c1ccc(-c2nc(N3CCOCC3)[s+]n2-c2ccccc2)cc1 | 0.05
37 | Cc1ccc(C)c(/C=C/C(=O)c2ccccc(=O)c2O)c1 | 8.74
38 | O=C(NC1=C(Nc2ccc(Cl)cc2)C(=O)c2ccccc2C1=O)c1ccccc1 | 2.91
39 | CCN(CC)S(=O)(=O)c1cccc(C(=O)NN=Cc2ccc(O)c(O)c2O)c1 | 6.41
40 | O=C(Nc1ccc2nc(-c3ccco3)c(-c3ccco3)nc2c1)N1CCN(c2ccccn2)CC1 | 5.94
41 | O=C(c1ccccc1)c1ccc2nc(-c3ccco3)c(-c3ccco3)nc2c1 | 9.94
42 | CCOc1ccccc1CNc1ccc(O)cc1 | 1.13
43 | CCN1/C(=C/c2ccc3cc(C)ccc3[n+]2CC)Sc2cc(C)c(C)cc21 | 16.9
44 | COc1ccc(-n2cc(-c3ccc(OC)c(OC)c3)[nH]c2=S)cc1 | 1.58
45 | O=c1[nH]c(O)c(Cc2ccc(-c3cc(Cl)ccc3[N+](=O)[O-])o2)c(=O)[nH]1 | 1.24
46 | O=C(NCCCO)Nc1ccc2nc(-c3ccco3)c(-c3ccco3)nc2c1 [1-[2,3-bis(2-furanyl)-6-quinoxalinyl]-3-(3-hydroxypropyl)urea] | 1.25
47 | O=C(NCc1ccccc1)c1ccc2nc(-c3ccco3)c(-c3ccco3)nc2c1 [2,3-bis(furan-2-yl)-N-(phenylmethyl)quinoxaline-6-carboxamide] | 3.06

Row | SMILES | EC50 [µM]
48 | COc1ccc2nc(-c3ccco3)c(-c3ccco3)nc2c1 [2,3-di-2-furyl-6-methoxyquinoxaline] | 4.93
49 | O=C(NCc1ccccn1)c1ccc2nc(-c3ccco3)c(-c3ccco3)nc2c1 [2,3-di-2-furyl-N-(pyridin-2-ylmethyl)quinoxaline-6-carboxamide] | 3.66
50 | O=C(Nc1ccccc1)c1ccc2nc(-c3ccco3)c(-c3ccco3)nc2c1 [2,3-di-2-furyl-N-phenyl-6-quinoxalinecarboxamide] | 7.56
51 | Cc1cccc(NC2=NC(=O)C(=CC=Cc3ccco3)S2)c1C [2-(2,3-Dimethyl-phenylamino)-5-[(E)-3-furan-2-yl-prop-2-en-(Z)-ylidene]-thiazol-4-one] | 3.17
52 | c1coc(C2=Nc3cccc4cccc(c34)N2)c1 [2-(2-furanyl)-1H-perimidine] | 6.32
53 | Cc1cc(C)c(S(=O)(=O)N=C2C=C(SCC(=O)O)C(=O)c3ccccc32)cc1C [2-[1-oxidanylidene-4-(2,4,5-trimethylphenyl)sulfonylimino-naphthalen-2-yl]sulfanylethanoic acid] | 8.24
54 | COc1cc(CNc2ccc3[nH]c(=O)[nH]c3c2)cc(Br)c1OCC(=O)NC(C)(C)C [2-[2-bromo-6-methoxy-4-[[(2-oxo-1,3-dihydrobenzimidazol-5-yl)amino]methyl]phenoxy]-N-tert-butylacetamide] | 0.87
55 | Cc1ccc(/C=C/C2=Cc3c(sc(NC(=O)CSc4nnc(N)[nH]4)c3C#N)C(C)(C)C2)o1 [2-[(5-azanyl-1H-1,2,4-triazol-3-yl)sulfanyl]-N-[3-cyano-7,7-dimethyl-5-[(E)-2-(5-methylfuran-2-yl)ethenyl]-6H-1-benzothiophen-2-yl]ethanamide] | 4.19
56 | Cc1nnc(Sc2cc(NCCO)c([N+](=O)[O-])c3nonc23)s1 [2-[[7-[(5-methyl-1,3,4-thiadiazol-2-yl)thio]-4-nitro-2,1,3-benzoxadiazol-5-yl]amino]ethanol] | 0.52
57 | CCOC(=O)CSC1=NC(=O)/C(=C/c2ccc(OC)cc2)S1 [2-[[(5Z)-5-[(4-methoxyphenyl)methylidene]-4-oxo-2-thiazolyl]thio]acetic acid ethyl ester] | 1.12
58 | Cc1ccc(-c2cc(-c3ccc(C)o3)nc(N)c2C#N)cc1 [2-amino-6-(5-methylfuran-2-yl)-4-(4-methylphenyl)pyridine-3-carbonitrile] | 2.25
59 | Cc1cc(-c2cc(-c3ccc(Cl)cc3)nc(N)c2C#N)co1 [2-azanyl-6-(4-chlorophenyl)-4-(5-methylfuran-3-yl)pyridine-3-carbonitrile] | 3.86
60 | CCN(CC)c1ccc(NC2=C(Cl)C(=O)c3ccccc3C2=O)cc1 [2-chloro-3-{[4-(diethylamino)phenyl]amino}naphthoquinone] | 0.18
61 | CC(=O)OCCNc1cc(Sc2nc3ccccc3[nH]2)c2nonc2c1[N+](=O)[O-] [2-{[7-(1H-benzimidazol-2-ylthio)-4-nitro-2,1,3-benzoxadiazol-5-yl]amino}ethyl acetate] | 5.6
62 | O=C(/C=C/c1ccccc1Cl)c1ccccc(=O)c1O [3-[(E)-3-(2-chlorophenyl)prop-2-enoyl]-2-oxidanyl-cyclohepta-2,4,6-trien-1-one] | 9.01
63 | O=C(c1ccccc1)c1[nH]n(-c2ccccc2)c2c(O)n(-c3ccccc3)c(=O)c1-2 [3-benzoyl-1,5-diphenyl-3a,6a-dihydropyrrolo[3,4-c]pyrazole-4,6-dione] | 1.36
64 | COc1ccc(N2C(=O)C(=Nc3c(C)n(C)n(-c4ccccc4)c3=O)C(Cl)C2=O)cc1 (stereo not drawn) [3-chloranyl-4-[(1,5-dimethyl-3-oxidanylidene-2-phenyl-pyrazol-4-yl)amino]-1-(4-methoxyphenyl)pyrrole-2,5-dione] | 12
65 | Cc1c(N=C2C(=O)N(c3ccccc3)C(=O)C2Cl)c(=O)n(-c2ccccc2)n1C (stereo not drawn) [3-chloranyl-4-[(1,5-dimethyl-3-oxidanylidene-2-phenyl-pyrazol-4-yl)amino]-1-phenyl-pyrrole-2,5-dione] | 15.4
66 | Cc1cc(N)ccc1N1CCCC1 [3-methyl-4-(1-pyrrolidinyl)aniline;hydrochloride] | 7.93
67 | CNC(CC(=O)c1ccc([N+](=O)[O-])cc1)C(Cl)(Cl)Cl (stereo not drawn) [4,4,4-Trichloro-3-methylamino-1-(4-nitro-phenyl)-butan-1-one] | 0.47
68 | COc1cc(C2Nc3cccc4cccc(c34)N2)cc(OC)c1O [4-(2,3-dihydro-1H-perimidin-2-yl)-2,6-dimethoxyphenol] | 1.73
